Source: patent US20050244427A1, “Isolation and production of bioactive marine products” (priority 2004, published 2005)

System: Symbiodinium cells isolated from Eunicea fusca
Assay: Effect of plant growth factors on fuscol production in in vitro cultures of alga cells isolated from Eunicea fusca
Assay type: cell-based
Conditions: One hundred μM added for 48 hours after 24 hours in culture medium; compared with untreated control cells; RP HPLC, detection at 240 nm; FIG. 4
Method: FIG. 4 is a graph showing the induction of fuscol production in Symbiodinium cells isolated from Eunicea fusca with Methyl Jasmonate, Giberellic Acid and Salicyclic Acid.
Live Eunicea fusca was collected from Florida Keys. The tissue was homogenized in a blender using 50:50 DI/Filtered Seawater (FSW). The homogenate was strained into 50 mL Falcon tubes and centrifuged at 160×g for 5 minutes. The supernatant was discarded and the pellet was resuspended in 50:50 DI/FSW. The sample was centrifuged again, followed by three rounds of rinsing and centrifuging until the supernatant was clear. The cell pellet was layered over a Percoll gradient (30% and 70%) and centrifuged at 38×g for 10 minutes. Cells on the 30/70% interface were collected using a plastic pipet and rinsed two times in 50:50 DI/FSW water. Cells were examined by light microscopy to assess cell purity and to count the number of cells. 2.38×10^8 cells (500 μL) were removed from the sample and diluted to 2 mL with tris buffer (20 mM containing 3 mM EDTA, 5 mM MgCl2 and 5 mM β-mercaptoethanol). The sample was incubated with 1μ Ci ^3H-GGPP for 24 hrs at 29° C. and 180 RPM. The cells were centrifuged and the buffer was removed using a syringe and filtered into a scintillation vial. The cells were extracted with methylene chloride and ethyl acetate (8 times) followed by filtration into the scintillation vial containing the buffer. The crude extract was dried and weighed. The dried extract weighed 7.08 mg. The extract was partitioned between MeOH:H2O 9:1 and hexanes. The hexanes layer was dried and weighed. This layer weighed 4.77 mg. Water was added to make MeOH:H2O at a ratio of 1:1 and partitioned with methylene chloride. The CH2Cl2 layer was dried and weighed. This layer weighed 1.67 mg.
Referring to FIG. 4, the effect of growth factors on the production of fuscol in in vitro cultures of alga cells isolated from Eunicea fusca (as described above) was analyzed. […] The cells were then extracted and fuscol concentrations were determined by standard chromatographic methods (RP HPLC, detection at λ 240 nm).

SMILES | production of fuscol (fuscol concentration in extracted cells)
C=C1C[C@]23CC1(O)CC[C@H]2[C@@]12C=C[C@H](O)C(C)(C(=O)O1)[C@H]2[C@@H]3C(=O)O [giberellic acid] | Significantly more fuscol was produced
CC/C=C\CC1C(=O)CCC1CC(=O)OC (stereo not drawn) [methyl jasmonate] | Significantly more fuscol was produced
O=C(O)c1ccccc1O [salicyclic acid] | Significantly more fuscol was produced
